Laboratory results: PubChem BioAssay AID270 (DTP/NCI, 2004)
Several values for one entry are separate records, joined by “and”; a condition that tells them apart may be missing. Equal entries are not always repeated. Results filed as inconclusive are left out.

Test system: BDF1 mice, s.c. Lewis lung carcinoma, T/C %
Test: NCI In Vivo Anticancer Drug Screen. Data for tumor model Lewis Lung Carcinoma (subcutaneous) in B6D2F1 (BDF1) mice
Method in brief: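 Transplanted tumors grown in mice; compound vs vehicle dosing; endpoint survival or tumor size; ratio T/C.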

`CC1=CC2=C(C=O)C(=O)[C@](C)(O)[C@@H](O)C2=CO1` was tested, and the T/C (endpoint: median survival time, dose: 1.56 mg/kg/injection, schedule: Q01DX009 (ip), vehicle: saline with Tween-80, higher = longer survival) was 115 % of control, the T/C (endpoint: median survival time, dose: 3.13 mg/kg/injection, schedule: Q01DX009 (ip), vehicle: saline with Tween-80, higher = longer survival) was 153 % of control and the T/C (endpoint: median survival time, dose: 6.25 mg/kg/injection, schedule: Q01DX009 (ip), vehicle: saline with Tween-80, higher = longer survival) was 89 % of control and 120 % of control. The T/C (endpoint: median survival time, dose: 12.5 mg/kg/injection, schedule: Q01DX009 (ip), vehicle: saline with Tween-80, higher = longer survival) was 109 % of control and the T/C (endpoint: median survival time, dose: 25.0 mg/kg/injection, schedule: Q01DX009 (ip), vehicle: saline with Tween-80, higher = longer survival) was 106 % of control.

For `C/C=C1\CN(C)[C@H]2Cc3c([nH]c4ccccc34)[C@@H](c3cc4[nH]c5c(c4cc3OC)CCN3C[C@H]4C[C@H](CC)[C@H]3[C@@]5(C(=O)OC)C4)C[C@H]1C2C(=O)OC` (some centres not stated), the T/C (endpoint: mean tumor weight, dose: 18.0 mg/kg/injection, schedule: Q01DX011 (ip), vehicle: water, higher = larger tumour) was 66 % of control, the T/C (endpoint: mean tumor weight, dose: 27.0 mg/kg/injection, schedule: Q01DX011 (ip), vehicle: water, higher = larger tumour) was 81 % of control and the T/C (endpoint: mean tumor weight, dose: 40.0 mg/kg/injection, schedule: Q01DX011 (ip), vehicle: water, higher = larger tumour) was 62 % of control.

With `Nc1nc(SCc2ccccc2Cl)c2ncn(C3OC(CO)C(O)C3O)c2n1` (configuration not stated) the T/C (endpoint: mean tumor weight, dose: 6.3 mg/kg/injection, schedule: Q01DX011 (ip), vehicle: other, higher = larger tumour) was 56 % of control, the T/C (endpoint: mean tumor weight, dose: 12.5 mg/kg/injection, schedule: Q01DX011 (ip), vehicle: other, higher = larger tumour) was 55 % of control and the T/C (endpoint: mean tumor weight, dose: 25.0 mg/kg/injection, schedule: Q01DX011 (ip), vehicle: other, higher = larger tumour) was 49 % of control. For the same molecule, the T/C (endpoint: mean tumor weight, dose: 50.0 mg/kg/injection, schedule: Q01DX011 (ip), vehicle: other, higher = larger tumour) was 28 % of control.

With `O=S(=O)(O)C(Nc1ccccc1)c1ccccc1` (configuration not stated) the T/C (endpoint: mean tumor weight, dose: 100.0 mg/kg/injection, schedule: Q01DX011 (ip), vehicle: water, higher = larger tumour) was 51 % of control, the T/C (endpoint: mean tumor weight, dose: 200.0 mg/kg/injection, schedule: Q01DX011 (ip), vehicle: water, higher = larger tumour) was 71 % of control and the T/C (endpoint: mean tumor weight, dose: 400.0 mg/kg/injection, schedule: Q01DX011 (ip), vehicle: water, higher = larger tumour) was 27 % of control.

For `COc1cc(NS(C)(=O)=O)ccc1Nc1c2cccc(C)c2nc2c(C)cccc12`, the T/C (endpoint: median survival time, dose: 6.25 mg/kg/injection, schedule: Q01DX011 (ip), vehicle: saline, higher = longer survival) was 88 % of control, the T/C (endpoint: median survival time, dose: 12.5 mg/kg/injection, schedule: Q01DX011 (ip), vehicle: saline, higher = longer survival) was 113 % of control and the T/C (endpoint: median tumor weight (est.), dose: 25.0 mg/kg/injection, schedule: Q01DX011 (ip), vehicle: saline, higher = larger tumour) was 579 % of control.

In the case of `OCC1OC(Oc2ccc(O)cc2)C(O)C(O)C1O` (configuration not stated), the T/C (endpoint: median survival time, dose: 50.0 mg/kg/injection, schedule: Q01DX009 (ip), vehicle: saline, higher = longer survival) is reported as 95 % of control, the T/C (endpoint: median survival time, dose: 100.0 mg/kg/injection, schedule: Q01DX009 (ip), vehicle: saline, higher = longer survival) is reported as 106 % of control and the T/C (endpoint: median survival time, dose: 200.0 mg/kg/injection, schedule: Q01DX009 (ip), vehicle: saline, higher = longer survival) is reported as 92 % of control. The T/C (endpoint: median survival time, dose: 400.0 mg/kg/injection, schedule: Q01DX009 (ip), vehicle: saline, higher = longer survival) was 106 % of control.

With `CN(C)C(=S)N=Nc1c(O)[nH]c2ccccc12` the T/C (endpoint: mean tumor weight, dose: 6.6 mg/kg/injection, schedule: Q01DX011 (ip), vehicle: carboxymethylcellulose (CMC), higher = larger tumour) was 74 % of control, the T/C (endpoint: mean tumor weight, dose: 10.0 mg/kg/injection, schedule: Q01DX011 (ip), vehicle: carboxymethylcellulose (CMC), higher = larger tumour) was 89 % of control and the T/C (endpoint: mean tumor weight, dose: 15.0 mg/kg/injection, schedule: Q01DX011 (ip), vehicle: carboxymethylcellulose (CMC), higher = larger tumour) was 47 % of control and 65 % of control. The T/C (endpoint: mean tumor weight, dose: 30.0 mg/kg/injection, schedule: Q01DX011 (ip), vehicle: carboxymethylcellulose (CMC), higher = larger tumour) was 50 % of control.

`O=C(O)C1(NO)CCCC1` was tested, and the T/C (endpoint: mean tumor weight, dose: 55.0 mg/kg/injection, schedule: Q01DX011 (ip), vehicle: saline, higher = larger tumour) was 73 % of control, the T/C (endpoint: mean tumor weight, dose: 83.0 mg/kg/injection, schedule: Q01DX011 (ip), vehicle: saline, higher = larger tumour) was 29 % of control and the T/C (endpoint: mean tumor weight, dose: 125.0 mg/kg/injection, schedule: Q01DX011 (ip), vehicle: saline, higher = larger tumour) was 27 % of control.

For `O=c1[nH]cc(N(CCCl)CCCl)c(=O)[nH]1`, the T/C (endpoint: mean tumor weight, dose: 0.37 mg/kg/injection, schedule: Q01DX011 (ip), vehicle: carboxymethylcellulose (CMC), higher = larger tumour) was 70 % of control, the T/C (endpoint: mean tumor weight, dose: 0.57 mg/kg/injection, schedule: Q01DX011 (ip), vehicle: carboxymethylcellulose (CMC), higher = larger tumour) was 59 % of control and the T/C (endpoint: mean tumor weight, dose: 0.85 mg/kg/injection, schedule: Q01DX011 (ip), vehicle: carboxymethylcellulose (CMC), higher = larger tumour) was 38 % of control.

In the case of `O=C1C2C3CCC(O3)C2C(=O)N1c1nccs1` (configuration not stated), the T/C (endpoint: mean tumor weight, dose: 62.5 mg/kg/injection, schedule: Q01DX011 (ip), vehicle: carboxymethylcellulose (CMC), higher = larger tumour) is reported as 75 % of control and the T/C (endpoint: mean tumor weight, dose: 125.0 mg/kg/injection, schedule: Q01DX011 (ip), vehicle: carboxymethylcellulose (CMC), higher = larger tumour) is reported as 71 % of control.

With `N=[N+]=CC(=O)OCC(N)C(=O)O` (configuration not stated) the T/C (endpoint: mean tumor weight, dose: 2.5 mg/kg/injection, schedule: Q01DX011 (ip), vehicle: saline, higher = larger tumour) was 76 % of control and 81 % of control and the T/C (endpoint: mean tumor weight, dose: 10.0 mg/kg/injection, schedule: Q01DX011 (ip), vehicle: saline, higher = larger tumour) was 24 % of control and 31 % of control.

`O=C(Nc1ccc2c(c1)Cc1cccc(NC(=O)C(Cl)Cl)c1-2)C(Cl)Cl` was tested, and the T/C (endpoint: mean tumor weight, dose: 45.0 mg/kg/injection, schedule: Q01DX011 (ip), vehicle: carboxymethylcellulose (CMC), higher = larger tumour) was 72 % of control.
